Where a name gives a salt, the structure may show the parent alone.

T1 sequence (P50406 whole entry): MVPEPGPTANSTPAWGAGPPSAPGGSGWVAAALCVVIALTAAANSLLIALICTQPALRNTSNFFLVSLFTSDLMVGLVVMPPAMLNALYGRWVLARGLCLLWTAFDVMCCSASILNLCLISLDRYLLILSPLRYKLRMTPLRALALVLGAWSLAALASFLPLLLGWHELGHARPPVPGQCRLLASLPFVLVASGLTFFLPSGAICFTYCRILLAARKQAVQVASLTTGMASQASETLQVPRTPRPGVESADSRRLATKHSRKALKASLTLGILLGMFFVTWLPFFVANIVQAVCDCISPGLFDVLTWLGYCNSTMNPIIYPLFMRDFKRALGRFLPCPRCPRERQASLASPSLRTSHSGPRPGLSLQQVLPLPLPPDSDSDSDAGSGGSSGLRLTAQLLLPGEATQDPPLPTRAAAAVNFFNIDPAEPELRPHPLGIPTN

Test system in one data set: not given
Assay: not given
For `O=S(=O)(c1cccc2cccnc12)n1ncc2c(OC[C@@H]3CCCN3)cccc21` [Example 16, 8-({4-[(2S)-pyrrolidin-2-ylmethoxy]-1H-indazol-1-yl}sulfonyl)quinoline], the melting point lay within 217 to 218 °C.
On the same count and under the same terms, to `O=S(=O)(c1ccc(F)cc1)n1ccc2c(OC[C@@H]3CCCN3)cccc21` (as salt: hydrochloride) [Example 7, 1-[(4-fluorophenyl)sulfonyl)-4-[(2S)-pyrrolidin-2-ylmethoxy]-1H-indole] belongs 258 °C (dec.); to `Nc1ccc(S(=O)(=O)n2ncc3c(OC[C@@H]4CCCN4)cccc32)cc1` (as salt: hydrochloride) [Example 20, 4-({4-[(2S)-pyrrolidin-2-ylmethoxy}-1H-indazol-1-yl}sulfonyl)aniline], 150 to 155 °C; to `O=S(=O)(c1ccc(Cl)s1)n1ncc2c(OC[C@@H]3CCCN3)cccc21` (as salt: hydrochloride) [Example 19, 1-[(5-chlorothien-2-yl)sulfonyl]-4-[(2S)-pyrrolidin-2-ylmethoxy]-1H-indazole], 195 °C.
In turn, `O=S(=O)(c1ccccc1F)n1ccc2c(OC[C@@H]3CCCN3)cccc21` (as salt: hydrochloride) [Example 5, 1-[(2-fluorophenyl)sulfonyl)-4-[(2S)-pyrrolidin-2-ylmethoxy]-1H-indole] registered a melting point of 153 to 155 °C.
In the case of `O=S(=O)(c1ccccc1F)n1ncc2c(OC[C@@H]3CCCN3)cccc21` (as salt: hydrochloride) [Example 18, 1-[(2-fluorophenyl)sulfonyl]-4-[(2S)-pyrrolidin-2-ylmethoxy]-1H-indazole], the melting point lay in the range of 145 to 148 °C.
For the compound `COc1ccc(S(=O)(=O)n2ccc3c(OC[C@@H]4CCCN4)cccc32)cc1OC` (as salt: hydrochloride) [Example 8, 1-[(3,4-dimethoxyphenyl)sulfonyl)-4-[(2S)-pyrrolidin-2-ylmethoxy]-1H-indole], the melting point was 115 °C (dec.).
Take `Nc1ccc(S(=O)(=O)n2ccc3c(OC[C@@H]4CCCN4)cccc32)cc1` (as salt: hydrochloride) [Example 9]: the melting point is 150 °C (dec.).
On the same count and under the same terms, to `O=S(=O)(c1ccccc1Cl)n1ncc2c(OC[C@@H]3CCCN3)cccc21` (as salt: hydrochloride) [Example 17, 1-[(2-chlorophenyl)sulfonyl]-4-[(2S)-pyrrolidin-2-ylmethoxy]-1H-indazole] belongs > 255 °C (dec.); to `Nc1ccc(S(=O)(=O)n2ncc3c(OC[C@@H]4CCCN4)cccc32)cc1Cl` (as salt: hydrochloride) [Example 21, 2-chloro-4-({4-[(2S)-pyrrolidin-2-ylmethoxy]-1H-indazol-1-yl}sulfonyl)aniline], 220 °C (dec.); to `O=S(=O)(c1cccc(F)c1)n1ccc2c(OC[C@@H]3CCCN3)cccc21` (as salt: hydrochloride) [Example 6, 1-[(3-fluorophenyl)sulfonyl)-4-[(2S)-pyrrolidin-2-ylmethoxy]-1H-indole], 160 to 162 °C.
Take `O=S(=O)(c1ccc(Cl)s1)n1ccc2c(OC[C@@H]3CCCN3)cccc21` (as salt: hydrochloride) [Example 4, 1-[(5-chlorothien-2-yl)sulfonyl]-4-[(2S)-pyrrolidin-2-ylmethoxy]-1H-indole]: the melting point was 204 to 206 °C.

The next data set has as its target T1, human cloned 5-HT6 receptors (Homo sapiens, UniProt P50406).
T1 construct: expressed in transfected cells; host or cells: HeLa cells
The experiment in a line: 5-HT6 binding affinity, [3H]-LSD displacement on membranes of Hela cells expressing human cloned 5-HT6 receptors. The method, then:
The affinity of test compounds for the serotonin 5-HT6 receptor is evaluated in the following manner. Cultured Hela cells expressing human cloned 5-HT6 receptors are harvested and centrifuged at low speed (1,000×g) for 10.0 min to remove the culture media. The harvested cells are suspended in half volume of fresh physiological phosphate buffered saline solution and recentrifuged at the same speed. This operation is repeated. The collected cells are then homogenized in ten volumes of 50 mM Tris.HCl (pH 7.4) and 0.5 mM EDTA. The homogenate is centrifuged at 40,000×g for 30.0 min and the precipitate is collected. The obtained pellet is resuspended in 10 volumes of Tris.HCl buffer and recentrifuged at the same speed. The final pellet is suspended in a small volume of Tris.HCl buffer and the tissue protein content is determined in aliquots of 10-25 μl volumes. Bovine Serum Albumin is used as the standard in the protein determination according to the method described in Lowry et al., J. Biol. Chem., 193:265 (1951). The volume of the suspended cell membranes is adjusted to give a tissue protein concentration of 1.0 mg/ml of suspension. The prepared membrane suspension (10 times concentrated) is aliquoted in 1.0 ml volumes and stored at −70° C. until used in subsequent binding experiments.
The reaction is allowed to proceed in the dark for 120 min at room temperature, at which time, the bound ligand-receptor complex is filtered off on a 96 well unifilter with a Packard Filtermate® 196 Harvester. The bound complex caught on the filter disk is allowed to air dry and the radioactivity is measured in a Packard TopCount® equipped with six photomultiplier detectors, after the addition of 40.0 μl Microscint®-20 scintillant to each shallow well. The unifilter plate is heat-sealed and counted in a PackardTopCount® with a tritium efficiency of 31.0%.
Binding in the presence of varying concentrations of test compound is expressed as a percentage of specific binding in the absence of test compound. The results are plotted as log % bound versus log concentration of test compound. […] A linear regression line of data points is plotted, from which the IC50 value is determined and the Ki value is determined based upon the following equation: Ki=IC50/(1+L/KD) where L is the concentration of the radioactive ligand used and KD is the dissociation constant of the ligand for the receptor, both expressed in nM.
In turn, `O=S(=O)(c1cccc2cccnc12)n1ncc2c(OC[C@@H]3CCCN3)cccc21` [Example 16, 8-({4-[(2S)-pyrrolidin-2-ylmethoxy]-1H-indazol-1-yl}sulfonyl)quinoline] came in with a Ki of 85 nM.
The same measure, in the same setting: to `O=S(=O)(c1cccc(F)c1)n1ccc2c(OC[C@@H]3CCCN3)cccc21` [Example 6, 1-[(3-fluorophenyl)sulfonyl)-4-[(2S)-pyrrolidin-2-ylmethoxy]-1H-indole] belongs 8 nM; to `O=S(=O)(c1ccccc1Cl)n1ncc2c(OC[C@@H]3CCCN3)cccc21` [Example 17, 1-[(2-chlorophenyl)sulfonyl]-4-[(2S)-pyrrolidin-2-ylmethoxy]-1H-indazole], 5 nM; to `O=S(=O)(c1ccccc1)n1ccc2c(OC[C@@H]3CCCN3)cccc21` [Example 3, 1-(Phenylsulfonyl)-4-[(2S)-pyrrolidin-2-ylmethoxy]-1H-indole hydrochloride], 6 nM.
For the compound `O=S(=O)(c1ccccc1F)n1ccc2c(OC[C@@H]3CCCN3)cccc21` [Example 5, 1-[(2-fluorophenyl)sulfonyl)-4-[(2S)-pyrrolidin-2-ylmethoxy]-1H-indole], affinity was put at a Ki of 2 nM. This Ki lies about 3-fold lower than the previous one.
Still for that read-out and setting: to `O=S(=O)(c1ccc(Cl)s1)n1ccc2c(OC[C@@H]3CCCN3)cccc21` [Example 4, 1-[(5-chlorothien-2-yl)sulfonyl]-4-[(2S)-pyrrolidin-2-ylmethoxy]-1H-indole] belongs 7 nM.
Still for that read-out and setting: to `COc1ccc(S(=O)(=O)n2ccc3c(OC[C@@H]4CCCN4)cccc32)cc1OC` [Example 8, 1-[(3,4-dimethoxyphenyl)sulfonyl)-4-[(2S)-pyrrolidin-2-ylmethoxy]-1H-indole] belongs 95 nM.
Compound `O=S(=O)(c1ccccc1)n1ccc2c(OC[C@H]3CCCN3)cccc21` [Example 11, 1-(Phenylsulfonyl)-4-[(2R)-]pyrrolidin-2-ylmethoxy]-1H-indole hydrochloride] gave a Ki of 106 nM. The Ki values of the last two compounds are within 1.5-fold of each other.
Consider `Nc1ccc(S(=O)(=O)n2ncc3c(OC[C@@H]4CCCN4)cccc32)cc1` [Example 20, 4-({4-[(2S)-pyrrolidin-2-ylmethoxy}-1H-indazol-1-yl}sulfonyl)aniline], for which the Ki worked out at 9 nM. This Ki lies about 12-fold lower than the previous one.
The compound `O=S(=O)(c1ccccc1)n1ncc2c(OC[C@@H]3CCCN3)cccc21` [Example 15, 1-(Phenylsulfonyl)-4-[(2S)-pyrrolidin-2-ylmethoxy]-1H-indazole trifluoroacetic acid salt] yielded a Ki of 7 nM.
`O=S(=O)(c1ccc(Cl)s1)n1ncc2c(OC[C@@H]3CCCN3)cccc21` [Example 19, 1-[(5-chlorothien-2-yl)sulfonyl]-4-[(2S)-pyrrolidin-2-ylmethoxy]-1H-indazole] had a Ki of 5 nM.
The same measure, in the same setting: under `Nc1ccc(S(=O)(=O)n2ccc3c(OC[C@@H]4CCCN4)cccc32)cc1` [Example 9] stands 1 nM; under `O=S(=O)(c1ccc(F)cc1)n1ccc2c(OC[C@@H]3CCCN3)cccc21` [Example 7, 1-[(4-fluorophenyl)sulfonyl)-4-[(2S)-pyrrolidin-2-ylmethoxy]-1H-indole], 31 nM; under `Nc1ccc(S(=O)(=O)n2ncc3c(OC[C@@H]4CCCN4)cccc32)cc1Cl` [Example 21, 2-chloro-4-({4-[(2S)-pyrrolidin-2-ylmethoxy]-1H-indazol-1-yl}sulfonyl)aniline], 16 nM.
Take `O=S(=O)(c1ccccc1F)n1ncc2c(OC[C@@H]3CCCN3)cccc21` [Example 18, 1-[(2-fluorophenyl)sulfonyl]-4-[(2S)-pyrrolidin-2-ylmethoxy]-1H-indazole]: the Ki is 8 nM.

What is called melting point is the temperature of the solid-liquid transition. For orientation: Ki means the equilibrium dissociation constant of an inhibitor or competing ligand from its target.

(Values after patent US20050065185A1, “Heterocyclylalkoxy-, -alkylthio- and -alkylaminobenzazole derivatives as 5-hydroxytryptamine-6 ligands” (Wyeth, priority 2001, published 2005).)
